Data reported in patent US9416115B2, “Fused heterocyclic compounds as ion channel modulators” (Gilead Sciences, Inc., priority 2013, dated 2016).
Values belong to the molecule of their own block, whether it stands above or below them.

What was measured:
hNaV1.2 (SCN2A) = target: T1, hNaV1.2 (SCN2A) (Homo sapiens, UniProt Q99250); assay: Use-dependent inhibition of the CNS Nav1.2 sodium channel; format: cell-based; details: use-dependent block, 25 Hz, pulse 20, read-out: Nav1.2 UDB 25 Hz 10 uM
T1 construct: expressed in transfected cells
T1 sequence (Q99250 whole entry): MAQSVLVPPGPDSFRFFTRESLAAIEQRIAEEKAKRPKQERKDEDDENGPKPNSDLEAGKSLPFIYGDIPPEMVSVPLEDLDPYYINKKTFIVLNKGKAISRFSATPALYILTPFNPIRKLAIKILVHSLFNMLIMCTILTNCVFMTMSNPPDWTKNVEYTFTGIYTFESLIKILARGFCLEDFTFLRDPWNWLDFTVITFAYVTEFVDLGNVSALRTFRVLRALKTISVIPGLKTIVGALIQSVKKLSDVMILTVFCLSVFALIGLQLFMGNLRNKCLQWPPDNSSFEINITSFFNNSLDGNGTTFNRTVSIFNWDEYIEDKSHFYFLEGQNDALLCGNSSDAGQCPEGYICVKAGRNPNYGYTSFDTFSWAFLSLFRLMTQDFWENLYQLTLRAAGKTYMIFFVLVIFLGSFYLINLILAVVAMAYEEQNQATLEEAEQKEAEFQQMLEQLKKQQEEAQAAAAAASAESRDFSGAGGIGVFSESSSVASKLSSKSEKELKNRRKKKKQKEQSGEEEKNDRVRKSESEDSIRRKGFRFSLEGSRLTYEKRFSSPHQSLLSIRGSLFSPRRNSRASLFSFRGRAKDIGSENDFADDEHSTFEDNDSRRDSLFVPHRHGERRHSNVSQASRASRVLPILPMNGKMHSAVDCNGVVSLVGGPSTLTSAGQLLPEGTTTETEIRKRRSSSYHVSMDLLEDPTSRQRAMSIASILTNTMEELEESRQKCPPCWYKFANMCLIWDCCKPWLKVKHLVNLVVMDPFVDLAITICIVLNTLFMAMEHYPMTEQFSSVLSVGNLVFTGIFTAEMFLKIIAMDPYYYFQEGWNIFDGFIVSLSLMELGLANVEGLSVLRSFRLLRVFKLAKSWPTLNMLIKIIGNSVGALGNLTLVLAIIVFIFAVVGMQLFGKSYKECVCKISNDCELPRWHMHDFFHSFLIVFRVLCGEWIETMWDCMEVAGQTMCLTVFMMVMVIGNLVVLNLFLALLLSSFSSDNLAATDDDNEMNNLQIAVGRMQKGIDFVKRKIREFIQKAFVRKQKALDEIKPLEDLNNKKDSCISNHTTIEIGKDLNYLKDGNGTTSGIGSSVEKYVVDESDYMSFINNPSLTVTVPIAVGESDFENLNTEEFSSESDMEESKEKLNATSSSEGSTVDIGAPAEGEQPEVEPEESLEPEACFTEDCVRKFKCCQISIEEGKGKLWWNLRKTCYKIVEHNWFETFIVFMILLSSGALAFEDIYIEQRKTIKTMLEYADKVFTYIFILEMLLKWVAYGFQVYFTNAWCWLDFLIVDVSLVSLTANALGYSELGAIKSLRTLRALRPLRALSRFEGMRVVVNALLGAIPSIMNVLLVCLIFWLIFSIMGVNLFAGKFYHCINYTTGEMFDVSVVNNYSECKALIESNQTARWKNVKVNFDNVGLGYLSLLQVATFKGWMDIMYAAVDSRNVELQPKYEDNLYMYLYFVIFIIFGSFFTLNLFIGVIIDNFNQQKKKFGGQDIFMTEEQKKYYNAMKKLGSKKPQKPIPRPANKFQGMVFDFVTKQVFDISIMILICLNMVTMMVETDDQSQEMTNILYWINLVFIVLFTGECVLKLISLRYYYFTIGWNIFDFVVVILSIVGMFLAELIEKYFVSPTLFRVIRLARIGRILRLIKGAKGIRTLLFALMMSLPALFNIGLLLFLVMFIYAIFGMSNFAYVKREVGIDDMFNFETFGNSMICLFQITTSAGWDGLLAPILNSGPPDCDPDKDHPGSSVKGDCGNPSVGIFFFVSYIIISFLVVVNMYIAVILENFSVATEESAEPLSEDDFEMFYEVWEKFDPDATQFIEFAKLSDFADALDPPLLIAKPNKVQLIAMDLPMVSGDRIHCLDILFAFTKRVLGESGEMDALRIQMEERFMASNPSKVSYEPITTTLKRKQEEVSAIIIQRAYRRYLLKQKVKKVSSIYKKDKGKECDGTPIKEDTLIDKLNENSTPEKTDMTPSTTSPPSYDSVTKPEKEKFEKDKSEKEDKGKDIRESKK
T1 sequence (Q07699 19-218 partner): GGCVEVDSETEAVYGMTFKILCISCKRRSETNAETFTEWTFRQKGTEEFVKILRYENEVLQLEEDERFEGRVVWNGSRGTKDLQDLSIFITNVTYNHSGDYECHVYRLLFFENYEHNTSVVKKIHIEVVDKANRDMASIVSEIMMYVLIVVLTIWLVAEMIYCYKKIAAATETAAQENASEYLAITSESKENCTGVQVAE
T1 sequence (O60939 30-215 partner): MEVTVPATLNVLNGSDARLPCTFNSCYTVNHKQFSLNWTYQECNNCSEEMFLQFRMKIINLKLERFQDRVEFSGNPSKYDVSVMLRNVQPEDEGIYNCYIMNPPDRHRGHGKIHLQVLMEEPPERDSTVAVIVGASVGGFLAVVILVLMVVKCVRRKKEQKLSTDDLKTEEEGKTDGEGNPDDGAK
Procedure: HEK-293 cells stably expressing wild-type (WT) hNaV1.2 (SCN2A NCBI # NM_021007.2, SCN1B NCBI # NM_001037.4, SCN2B NCBI # NM_004588.2) were used to record INa. Cells are maintained with standard tissue culture procedures and stable channel expression is maintained with 800 ug/mL G418 and 3 ug/mL Puromycin in the culture medium. Unless otherwise noted, all reagents are purchased from Sigma-Aldrich (St Louis, Mo., U.S.A.).
Assays measuring Use-Dependent Block (UDB) of Nav1.2 are performed on an automated electrophysiology platform, QPatch 16X or QPatch HT (Sophion Bioscience, Copenhagen, Denmark), using the whole cell patch clamp technique to measure currents through the cell membrane. Series resistance compensation is set to 100% and series resistance and whole-cell compensation are performed automatically. Currents stored in the Sophion Bioscience Oracle database (Sophion Bioscience, Copenhagen, Denmark). Analysis is performed using QPatch Assay software and data are compiled in Excel 2010 (Microsoft, Seattle, Wash., U.S.A.).
The internal (pipette) solution consists of (in mM) 105 CsF, 10 NaF, 20 CsCl, 2 EGTA, 10 HEPES, 10 Dextrose with a pH of 7.35 and osmolarity of 300 mOsmol/kg. The external (bath) solution contains in (mM): 145 NaCl, 4 KCl, 1.8 CaCl2, 1 MgCl2, 10 dextrose, 10 HEPES, with a pH of 7.35 and osmolarity of 310 mOsmol/kg. Experiments are carried out at 23-25° C.
Compound stocks are routinely made by the Gilead Sample Bank in vials to 10 mM in dimethyl sulfoxide (DMSO). In some cases, when compounds are not soluble in DMSO, they are made in 100% ethanol. Stocks are sonicated as necessary. […]
Cells are allowed to stabilize for 10 min after establishment of the whole-cell configuration before current is measured. The test compound is applied 2 times at 60 second intervals. After the second compound addition, a 200 second wait period was imposed to allow for equilibration. Leak currents are subtracted by using an online P/4 procedure and all currents are low-pass Bessel filtered at 5 kHz and digitized at […].
Results are presented as mean percentage inhibition.
Use-dependent block of Nav1.2 peak current is measured during pulse number 20 of a voltage pulse train (0 mV, 20 ms, 20 pulses, 25 Hz) from a holding potential of −120 mV.
Currents are normalized to the peak current recorded in response to the first pulse in each frequency train. The voltage protocol for UDB was performed in the absence and presence of compound and percentage inhibition was calculated with respect to the compound free condition.

[1] = target: wild-type human cardiac sodium channel, hNav1.5 (Homo sapiens, UniProt Q14524); assay: Late INa screening assay (QPatch whole cell patch clamp, Tefluthrin-induced late current); format: cell-based; details: HEK293 hNav1.5, percent block of late INa
Chain of wild-type human cardiac sodium channel, hNav1.5 (Q14524 whole entry): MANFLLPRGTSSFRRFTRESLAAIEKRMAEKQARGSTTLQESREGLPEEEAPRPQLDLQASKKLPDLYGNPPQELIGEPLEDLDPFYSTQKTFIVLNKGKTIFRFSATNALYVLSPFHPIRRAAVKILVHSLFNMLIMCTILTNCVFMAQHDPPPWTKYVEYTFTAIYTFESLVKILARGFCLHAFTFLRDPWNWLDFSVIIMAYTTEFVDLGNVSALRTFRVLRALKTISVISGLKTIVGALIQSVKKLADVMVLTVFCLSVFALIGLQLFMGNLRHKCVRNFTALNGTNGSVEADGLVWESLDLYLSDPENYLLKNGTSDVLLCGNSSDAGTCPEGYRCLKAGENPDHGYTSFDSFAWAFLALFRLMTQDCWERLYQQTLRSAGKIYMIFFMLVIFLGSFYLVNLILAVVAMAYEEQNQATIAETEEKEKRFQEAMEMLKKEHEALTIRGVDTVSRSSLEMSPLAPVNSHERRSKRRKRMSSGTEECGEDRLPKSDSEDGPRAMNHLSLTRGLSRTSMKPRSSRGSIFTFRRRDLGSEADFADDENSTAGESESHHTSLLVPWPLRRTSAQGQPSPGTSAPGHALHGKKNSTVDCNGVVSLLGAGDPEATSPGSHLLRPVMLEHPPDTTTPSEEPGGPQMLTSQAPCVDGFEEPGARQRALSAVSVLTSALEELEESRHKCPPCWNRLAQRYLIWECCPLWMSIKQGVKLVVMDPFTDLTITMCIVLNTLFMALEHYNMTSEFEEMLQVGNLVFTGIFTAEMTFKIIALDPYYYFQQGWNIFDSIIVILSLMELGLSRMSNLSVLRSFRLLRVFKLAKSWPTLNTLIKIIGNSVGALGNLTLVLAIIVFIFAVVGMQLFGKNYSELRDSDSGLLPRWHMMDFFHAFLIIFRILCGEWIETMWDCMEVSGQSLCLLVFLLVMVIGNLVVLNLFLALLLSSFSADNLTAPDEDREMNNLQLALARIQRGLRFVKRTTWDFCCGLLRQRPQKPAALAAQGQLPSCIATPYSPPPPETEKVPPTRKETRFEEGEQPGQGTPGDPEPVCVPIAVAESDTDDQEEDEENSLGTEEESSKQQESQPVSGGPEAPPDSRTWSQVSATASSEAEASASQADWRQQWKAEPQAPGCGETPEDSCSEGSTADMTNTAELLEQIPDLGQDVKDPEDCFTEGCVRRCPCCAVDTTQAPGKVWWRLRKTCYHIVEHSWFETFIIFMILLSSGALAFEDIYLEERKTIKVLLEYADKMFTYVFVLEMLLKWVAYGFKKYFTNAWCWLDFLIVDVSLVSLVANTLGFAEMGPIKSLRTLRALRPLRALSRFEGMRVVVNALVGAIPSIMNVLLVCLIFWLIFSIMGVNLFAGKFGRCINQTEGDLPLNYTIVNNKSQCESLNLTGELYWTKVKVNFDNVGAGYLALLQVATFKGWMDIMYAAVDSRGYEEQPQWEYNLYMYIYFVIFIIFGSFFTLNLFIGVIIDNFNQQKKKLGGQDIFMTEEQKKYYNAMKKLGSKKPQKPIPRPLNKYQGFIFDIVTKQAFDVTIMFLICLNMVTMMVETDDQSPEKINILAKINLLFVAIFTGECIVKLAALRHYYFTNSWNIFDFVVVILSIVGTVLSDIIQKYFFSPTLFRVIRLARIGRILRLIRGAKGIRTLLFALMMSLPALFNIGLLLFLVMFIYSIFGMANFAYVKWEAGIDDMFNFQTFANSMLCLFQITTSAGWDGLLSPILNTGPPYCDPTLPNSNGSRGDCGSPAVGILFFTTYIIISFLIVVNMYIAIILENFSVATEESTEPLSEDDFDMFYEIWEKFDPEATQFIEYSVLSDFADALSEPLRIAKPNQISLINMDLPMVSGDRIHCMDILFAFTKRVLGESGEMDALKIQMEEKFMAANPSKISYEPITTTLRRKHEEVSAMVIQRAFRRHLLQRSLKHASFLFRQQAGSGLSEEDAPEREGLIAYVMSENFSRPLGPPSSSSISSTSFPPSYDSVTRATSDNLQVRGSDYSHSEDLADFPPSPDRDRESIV
Procedure: The cardiac late sodium current (Late INa) and peak sodium current (Peak INa) assays are performed on an automated electrophysiology platform, QPatch 16X or QPatch HT (Sophion Bioscience, Copenhagen, Denmark) using the whole cell patch clamp technique to measure currents through the cell membrane. The assay uses an HEK293 (human embryonic kidney) cell line heterologously expressing the wild-type human cardiac sodium channel, hNav1.5, purchased from Millipore (Billerica, Mass.). No beta subunits were coexpressed with the Na channel alpha subunit. Cells are maintained with standard tissue culture procedures and stable channel expression is maintained with 400 μg/mL Geneticin in the culture medium. Experiments are carried out at 23-25° C.
For both the Late INa and Peak INa assays, series resistance compensation is set to 100% and series resistance and whole-cell compensation are performed automatically. Currents are digitized at 25 kHz and low-pass filtered at 5 kHz and stored in the Sophion Bioscience Oracle database (Sophion Bioscience, Copenhagen, Denmark). Analysis is performed using QPatch Assay software and data are compiled in Excel 2010 (Microsoft, Seattle, Wash., U.S.A.).
Compound stocks are routinely made by the Gilead Sample Bank in vials to 10 mM in dimethyl sulfoxide (DMSO). In some cases, when compounds are not soluble in DMSO, they are made in 100% ethanol. Stocks are sonicated as necessary. The extracellular solution for screening Late INa is composed of: 140 mM NaCl, 4 mM KCl, 1.8 mM CaCl2, 1 mM MgCl2, 10 mM HEPES and 10 mM Dextrose with pH adjusted to 7.35 using NaOH. The intracellular solution contains: 105 mM CsF, 20 mM CsCl, 10NaF, 2 mM EGTA, 10 mM HEPES and 10 mM Dextrose with pH adjusted to 7.35 with CsOH. Compounds are diluted in extracellular solution using a MicroLab Nimbus (Hamilton Robotics, Reno, Nev.) to between 0.3 and 3 μM in glass vials and transferred to glass well plates before robotic addition to the cells. The 0 mM Na extracellular solution (0Na-ECF) used at the end of each experiment for the Late INa and Peak INa assays to measure baseline current contains: 140 Choline-Cl; 4 mM KCl, 1.8 mM CaCl2; 1 mM MgCl2; 10 mM HEPES and 10 mM Dextrose with pH was adjusted to 7.35 with CsOH.
For the Late INa assay, sodium channels are activated every 10 seconds (0.1 Hz) by depolarizing the cell membrane to −20 mV for 250 milliseconds (ms) from a holding potential of −120 mV.
Compounds were tested to determine their activity in blocking the late sodium current. Late INa was generated by adding 10 μM Tefluthrin (pyrethroid) to the extracellular solution. For the purposes of the screening, Late INa is defined as the mean current between […] during the voltage step to −20 mV. After establishing the whole cell recording configuration, Late INa activator is added to each well 4 times over a 15 minute period so that the late component of the Na current reaches a stable value. Compounds were then added (typically at 0.3 or 1 μM), in the presence of the Late Na^+ activator, with 3 additions over the course of 5 minutes. Measurements were made at the end of exposure to the third compound addition and values were normalized to the current level when all Na^+ was removed from the extracellular solution after two additions of 0Na-ECF.
Results are reported as percent block of late INa and results were analyzed by incorporating rundown correction for the Late INa.

SMILES: N#CCOc1noc2ccc(-c3ccc(OC(F)(F)F)cc3)cc12 [Example 103, 2-((5-(4-(trifluoromethoxy)phenyl)benzo[d]isoxazol-3-yl)oxy)acetonitrile]
inhibition at 10 µM (hNaV1.2 (SCN2A)): < 5%
inhibition at 1 µM [1]: 38.9%

SMILES: Cc1ncn(-c2noc3ccc(-c4ccc(OC(F)(F)F)cc4)cc23)n1 [Example 141, 3-(3-methyl-1H-1,2,4-triazol-1-yl)-5-(4-(trifluoromethoxy)phenyl)benzo[d]isoxazole]
inhibition at 10 µM (hNaV1.2 (SCN2A)): 19.9%
inhibition at 1 µM [1]: 38.6%

SMILES: Cc1nnc(C(C)Oc2noc3ccc(-c4ccc(OC(F)(F)F)cc4)cc23)o1 (stereo not drawn) [Example 153, 3-(1-(5-methyl-1,3,4-oxadiazol-2-yl)ethoxy)-5-(4-(trifluoromethoxy)phenyl)benzo[d]isoxazole]
inhibition at 10 µM (hNaV1.2 (SCN2A)): 53.7%
inhibition at 0.3 µM [1]: 51.3%
inhibition at 1 µM [1]: 67.6%

SMILES: Cc1nccnc1COc1noc2ccc(-c3ccc(OC(F)(F)F)cc3)cc12 [Example 152, 3-((3-methylpyrazin-2-yl)methoxy)-5-(4-(trifluoromethoxy)phenyl)benzo[d]isoxazole]
inhibition at 10 µM (hNaV1.2 (SCN2A)): 13.8%
inhibition at 0.3 µM [1]: 19.8%
inhibition at 1 µM [1]: 53.4%

SMILES: FC(F)(F)Oc1ccc(-c2ccc3onc(-n4cnc(C(F)(F)F)c4)c3c2)cc1 [Example 145, 5-(4-(trifluoromethoxy)phenyl)-3-(4-(trifluoromethyl)-1H-imidazol-1-yl)benzo[d]isoxazole]
inhibition at 10 µM (hNaV1.2 (SCN2A)): 75.8%
inhibition at 0.3 µM [1]: 61.7%
inhibition at 1 µM [1]: 84.9%

SMILES: CC(COc1noc2ccc(-c3ccc(OC(F)(F)F)cc3)cc12)n1cccn1 (stereo not drawn) [Example 68, 3-(2-(1H-pyrazol-1-yl)propoxy)-5-(4-(trifluoromethoxy)phenyl)benzo[d]isoxazole]
inhibition at 10 µM (hNaV1.2 (SCN2A)): < 5%
inhibition at 0.3 µM [1]: 35.8%
inhibition at 1 µM [1]: 62.2%

SMILES: Fc1cc(C(F)(F)F)ccc1-c1ccc2onc(OCc3ncccn3)c2c1 [Example 6, 5-(2-fluoro-4-(trifluoromethyl)phenyl)-3-(pyrimidin-2-ylmethoxy)benzo[d]isoxazole]
inhibition at 10 µM (hNaV1.2 (SCN2A)): < 5%
inhibition at 1 µM [1]: 51.1%

SMILES: FC(F)(F)Oc1ccc(-c2ccc3onc(N4CCOCC4)c3c2)cc1 [Example 130, 3-morpholino-5-(4-(trifluoromethoxy)phenyl)benzo[d]isoxazole]
inhibition at 10 µM (hNaV1.2 (SCN2A)): < 5%
inhibition at 1 µM [1]: 38.3%

SMILES: FC(F)(F)Oc1ccc(-c2ccc3onc(OC[C@@H]4COCCN4)c3c2)cc1 [Example 113, (S)-3-(morpholin-3-ylmethoxy)-5-(4-(trifluoromethoxy)phenyl)benzo[d]isoxazole]
inhibition at 10 µM (hNaV1.2 (SCN2A)): 91.2%
inhibition at 0.3 µM [1]: 43.9%
inhibition at 1 µM [1]: 79.9%

SMILES: FC(F)(F)Oc1ccc(-c2ccc3onc(OCc4nnc(C5CC5)o4)c3c2)cc1 [Example 96, 3-((5-cyclopropyl-1,3,4-oxadiazol-2-yl)methoxy)-5-(4-(trifluoromethoxy)phenyl)benzo[d]isoxazole]
inhibition at 10 µM (hNaV1.2 (SCN2A)): 5.7%
inhibition at 0.3 µM [1]: 21.1%
inhibition at 1 µM [1]: 59.2%

SMILES: FC(F)(F)Oc1ccc(-c2ccc3onc(OCCNc4ncccn4)c3c2)cc1 [Example 123, N-(2-((5-(4-(trifluoromethoxy)phenyl)benzo[d]isoxazol-3-yl)oxy)ethyl)pyrimidin-2-amine]
inhibition at 10 µM (hNaV1.2 (SCN2A)): < 5%
inhibition at 1 µM [1]: 36.3%

SMILES: Cc1nnc(COc2noc3ccc(-c4ccc(OC(F)(F)F)cc4)cc23)s1 [Example 101, 3-((5-methyl-1,3,4-thiadiazol-2-yl)methoxy)-5-(4-(trifluoromethoxy)phenyl)benzo[d]isoxazole]
inhibition at 10 µM (hNaV1.2 (SCN2A)): 30.5%
inhibition at 1 µM [1]: 54.6%

inhibition at 10 µM (hNaV1.2 (SCN2A)): 10.2%
SMILES: FC(F)(F)Oc1ccc(-c2ccc3onc(OCc4ncccn4)c3c2)cc1 [Example 1, 3-(pyrimidin-2-ylmethoxy)-5-(4-(trifluoromethoxy)phenyl)benzo[d]isoxazole]
inhibition at 0.3 µM [1]: 55%
inhibition at 1 µM [1]: 66.2%

SMILES: Cc1cc(OC(F)(F)F)ccc1-c1ccc2onc(OCc3ncccn3)c2c1 [Example 3, 5-(2-methyl-4-(trifluoromethoxy)phenyl)-3-(pyrimidin-2-ylmethoxy)benzo[d]isoxazole]
inhibition at 10 µM (hNaV1.2 (SCN2A)): < 5%
inhibition at 1 µM [1]: 52.6%

SMILES: COc1cc2onc(OCc3ncccn3)c2cc1-c1ccc(OC(F)(F)F)c(C)c1 [Example 14, 6-methoxy-5-(3-methyl-4-(trifluoromethoxy)phenyl)-3-(pyrimidin-2-ylmethoxy)benzo[d]isoxazole]
inhibition at 10 µM (hNaV1.2 (SCN2A)): 9.6%
inhibition at 1 µM [1]: 46.7%

SMILES: CC(C)c1nnc(COc2noc3ccc(-c4ccc(OC(F)(F)F)cc4)cc23)o1 [Example 100, 3-((5-isopropyl-1,3,4-oxadiazol-2-yl)methoxy)-5-(4-(trifluoromethoxy)phenyl)benzo[d]isoxazole]
inhibition at 10 µM (hNaV1.2 (SCN2A)): 11%
inhibition at 0.3 µM [1]: 31.7%
inhibition at 1 µM [1]: 61.9%

SMILES: FC(F)(F)Oc1ccc(-c2ccc3onc(OCc4cccnn4)c3c2)cc1 [Example 74, 3-(pyridazin-3-ylmethoxy)-5-(4-(trifluoromethoxy)phenyl)benzo[d]isoxazole]
inhibition at 10 µM (hNaV1.2 (SCN2A)): < 5%
inhibition at 0.3 µM [1]: 15.7%
inhibition at 1 µM [1]: 60.9%

SMILES: CC(C)[C@H](N)COc1noc2ccc(-c3ccc(OC(F)(F)F)cc3)cc12 [Example 118, (S)-3-methyl-1-((5-(4-(trifluoromethoxy)phenyl)benzo[d]isoxazol-3-yl)oxy)butan-2-amine]
inhibition at 10 µM (hNaV1.2 (SCN2A)): 90.4%
inhibition at 0.3 µM [1]: 22.5%
inhibition at 1 µM [1]: 66.1%

SMILES: O=C(COc1noc2ccc(-c3ccc(OC(F)(F)F)cc3)cc12)N1CCCC1 [Example 121, 1-(pyrrolidin-1-yl)-2-((5-(4-(trifluoromethoxy)phenyl)benzo[d]isoxazol-3-yl)oxy)ethan-1-one]
inhibition at 10 µM (hNaV1.2 (SCN2A)): 57.8%
inhibition at 0.3 µM [1]: 39%
inhibition at 1 µM [1]: 77.7%

SMILES: FC(F)(F)Oc1ccc(-c2ccc3onc(NCCn4cncn4)c3c2)cc1 [Example 137, N-(2-(1H-1,2,4-triazol-1-yl)ethyl)-5-(4-(trifluoromethoxy)phenyl)benzo[d]isoxazol-3-amine]
inhibition at 10 µM (hNaV1.2 (SCN2A)): 86%
inhibition at 1 µM [1]: 47.2%
